80 compounds from the METLIN SMRT retention time set (Domingo-Almenara et al. 2019) can be followed below.

Structures are written as SMILES.

The nature of this data set: gradient 5% acetonitrile 3 min, to 50% in 2 min, to 85% in 15 min, held 3 min, 100 µL/min. The settings on record: column: Zorbax Extend-C18 2.1 x 50 mm; eluents: water / acetonitrile, 0.1% formic acid. A digest of the protocol:
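Data were gathered over 3 months by HPLC coupled to a quadrupole time-of-flight mass spectrometer, operated in positive and negative ionization mode. Mixtures of ~100 pure standards ran on a Zorbax Extend-C18 column (2.1 × 50 mm, 1.8 μm) at 100 μL/min, with water and acetonitrile each containing 0.1% formic acid and dead and dwell volumes of 40 μL and 900 μL. Retention time was read from adduct peaks picked by computer and checked manually.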
Regarding `CN1CCN(C(=O)CSc2nccnc2Sc2ccccc2)CC1`, the RP-LC retention time came out at 637 s.

`COc1cccc(CNC(=O)C2CCCN(c3nnc4ccc(Cl)cn34)C2)c1OC` (stereo not given) yielded an RP-LC retention time of 754 s.

`CC1CCn2c(nc3cc(C(=O)N4CCN(c5ncccn5)CC4)ccc32)C1` (stereo not given) registered an RP-LC retention time of 593 s.

Compound `CCCn1cc(CCNC(=O)Nc2ccc(Br)cc2)c2cccnc21` displayed an RP-LC retention time of 835 s.

`Cc1ccc(F)cc1NS(=O)(=O)c1ccc2c(c1)C(=O)N(C)c1ncccc1O2` displayed an RP-LC retention time of 924 s.

In turn, `O=S(=O)(c1cccn2cnnc12)N(Cc1cccc(F)c1)c1ccc(F)cc1` had an RP-LC retention time of 822 s.

For `COC1CCOC2(CCN(C(=O)c3cccs3)CC2)C1` (stereo not given), the RP-LC retention time was found to be 703 s.

`CSc1ccc(CNC(=O)C2CCCN(c3ccc(N4CCOCC4)nn3)C2)cc1` (stereo not given): the RP-LC retention time is 653 s.

As to `CCn1c(=O)sc2cc(S(=O)(=O)N3CCC(C(=O)NC4CCCCCC4)CC3)ccc21`, the RP-LC retention time worked out at 937 s.

`CC(C)c1noc(C2CCCCN2C(=O)c2cnn3cccnc23)n1` (stereo not given) yielded an RP-LC retention time of 755 s.

Compound `COCCn1c(CCCC(=O)NCc2ccccn2)nc2cccnc21` had an RP-LC retention time of 545 s.

The compound `CCCn1c(=O)c2c(ncn2C)n(CCC)c1=O` came in with an RP-LC retention time of 785 s.

The compound `O=S(=O)(c1cccc(-c2nnc(-c3ccccc3Br)o2)c1)N1CCCCC1` returned an RP-LC retention time of 1160 s.

`O=C(c1cnc2ccccc2n1)N1CCN(Cc2nc(-c3ccc(F)cc3)cs2)CC1` showed an RP-LC retention time of 719 s.

Regarding `CCOCCCNC(=O)N1CCN(c2nnc(C)c3c(C)n(-c4ccc(C)cc4)nc23)CC1`, the RP-LC retention time came out at 669 s.

Turning to `CNC(=O)c1cc(Oc2ccc(NC(=O)Nc3ccc(Cl)c(C(F)(F)F)c3)cc2)ccn1`, the RP-LC retention time was found to be 1190 s.

The compound `CCOC(=O)c1nc(Nc2cc(OC)ccc2OC)c2ccccc2n1` gave an RP-LC retention time of 911 s.

Regarding `CCOCCCNC(=O)c1nnc(-c2ccc(S(=O)(=O)N3CCCCC3)cc2)o1`, the RP-LC retention time was 762 s.

Compound `CCCc1cc(NC)n2ncc(-c3ccccc3)c2n1` had an RP-LC retention time of 683 s.

For the compound `O=C(NCc1nc(-c2ccc(N3CCCCC3)cc2)no1)c1cccs1`, the RP-LC retention time is 877 s.

The compound `COc1ccc(-c2cn3c(CC(=O)N4CCN(c5ccc(Cl)cc5)CC4)csc3n2)cc1OC` displayed an RP-LC retention time of 816 s.

Turning to `CC(=O)NCc1nc(-c2ccc(Oc3ccc(NC(C)=O)cc3)cc2)no1`, the RP-LC retention time amounted to 662 s.

`CCN(CC)C(=O)c1ccc2c(c1)N(CC(=O)NCCN1CCCCCC1)C(=O)CO2` returned an RP-LC retention time of 603 s.

Turning to `COc1ccc(S(=O)(=O)N2CCN(c3cc(C)nc(N4CCOCC4)n3)CC2)cc1Cl`, the RP-LC retention time is 692 s.

Consider `Cc1cccc2c(=O)n(C3CCN(S(=O)(=O)c4ccc(F)cc4)CC3)cnc12`, for which the RP-LC retention time was determined as 949 s.

Consider `Cc1oc(-c2[nH]ncc2C(=O)N2CCCC2)cc1S(=O)(=O)NCCCN(C)C`, for which the RP-LC retention time was determined as 569 s.

For the compound `O=C(C1CCN(c2nccnc2Sc2ccccc2)CC1)N1CCOCC1`, the RP-LC retention time was found to be 798 s.

Turning to `CC1=C(c2ccc(C)cc2)S(=O)(=O)N=C1N1CCCN(C(=O)Cc2ccsc2)CC1`, the RP-LC retention time was 847 s.

Consider `COCc1c(C(=O)O)nnn1-c1ccc(C(C)C)cc1`, for which the RP-LC retention time came to 825 s.

In the case of `Cc1ccc(N2CC(NC(=O)Nc3nc(C)cs3)CC2=O)cc1` (stereo not given), the RP-LC retention time was 660 s.

Compound `Cc1ccc(-n2c(N)cc(=O)nc2SCC(=O)Nc2nc3ccc(C)cc3s2)cc1` came in with an RP-LC retention time of 686 s.

As for `Cc1ccc2[nH]c(=O)c(CCC(=O)N3CCN(c4ncccn4)CC3)cc2c1`, the RP-LC retention time was found to be 686 s.

In turn, `Cc1ccc(-c2cc3c4nnc(CCC(=O)N5CCN(c6ccccn6)CC5)n4ccn3n2)cc1C` had an RP-LC retention time of 650 s.

`O=C(Cc1ccccc1Cl)NCC1CCN(C(=O)Oc2ccccc2)CC1` had an RP-LC retention time of 704 s.

Compound `O=C(NCc1ccco1)C1CN(C(=O)c2ccccc2)CC12CCCCC2` (stereo not given) came in with an RP-LC retention time of 795 s.

As to `O=C(Cn1ccc2ccccc21)NCCn1ncccc1=O`, the RP-LC retention time was 625 s.

Turning to `COc1cccc(NC(=O)C2CCCN(S(=O)(=O)c3c[nH]c(C(=O)N4CCCC4)c3)C2)c1` (stereo not given), the RP-LC retention time came out at 765 s.

In the case of `N#CCc1ccc(NC(=O)C2CCCN(S(=O)(=O)Cc3ccc(F)cc3)C2)cc1` (stereo not given), the RP-LC retention time was 884 s.

Compound `CC(C)CC(=O)N1CCN(c2nc(CN3CCC(C)CC3)cs2)CC1` returned an RP-LC retention time of 634 s.

The compound `COc1ccc(-c2noc(CN3N=NC4C(=O)N(c5cccc(F)c5)C(=O)C43)n2)c(OC)c1` (stereo not given) registered an RP-LC retention time of 610 s.

As to `CN(C)C(=O)c1csc(S(=O)(=O)N2CCC(C(=O)NCc3cccs3)CC2)c1`, the RP-LC retention time was 718 s.

As to `Cc1cc(Cl)ccc1S(=O)(=O)NCCn1c(C)cnc1C1CCC1`, the RP-LC retention time came to 592 s.

`CC(C)c1cnc2c(c1SCc1ccccn1)c(=O)n(C)c(=O)n2C` gave an RP-LC retention time of 737 s.

`CCOc1cc(C)c(C)cc1S(=O)(=O)n1cc(C)nc1CC` yielded an RP-LC retention time of 712 s.

With `Cc1cccc(-n2c(=O)c3sccc3n(Cc3nc(-c4ccc(C(F)(F)F)cc4)no3)c2=O)c1`, the RP-LC retention time came to 1120 s.

As for `Cc1cc(C)c2c(-n3cccc3)c(C(=O)N3CCN(c4ccccn4)CC3)sc2n1`, the RP-LC retention time came to 675 s.

`Cc1cccc(NC(=O)N2CCCC(Cn3cnc4cccnc43)C2)c1C` (stereo not given) had an RP-LC retention time of 672 s.

As to `O=C(NCC(=O)N1CCc2ccccc21)c1ccc(=O)[nH]c1`, the RP-LC retention time turned out to be 599 s.

In turn, `Cc1cc(C)n2c(Nc3c(C)cccc3C)c(-c3cccc(Cl)c3)nc2n1` had an RP-LC retention time of 902 s.

Compound `COc1ccc(CC(=O)Nc2nc(S(=O)(=O)Cc3ccccc3)ns2)cc1OC` displayed an RP-LC retention time of 775 s.

`Cc1ccccc1OCC(=O)N1CC2CN(S(=O)(=O)c3ccc(F)cc3)CC(C1)O2` came in with an RP-LC retention time of 903 s.

Compound `Cn1c(=O)c(N2CCN(C(=O)c3ccc(F)cc3F)CC2)nc2ccncc21` showed an RP-LC retention time of 586 s.

Regarding `Cc1cccc(N2CCN(c3cc(C)nc4c5c(C)cc(C)nc5nn34)CC2)n1`, the RP-LC retention time was found to be 561 s.

In the case of `COc1ccc(C2Cn3nnc(-c4nc(-c5ccccc5Cl)no4)c3CO2)cc1` (stereo not given), the RP-LC retention time came out at 1150 s.

Take `CCN1C(=O)COc2cc(-c3noc(C(=O)N4CCN(C)CC4)n3)ccc21`: the RP-LC retention time amounted to 616 s.

On to `Cc1nc(-c2ccccc2)nn1C1CCN(S(=O)(=O)c2ccccc2C(F)(F)F)C1` (stereo not given), for which the RP-LC retention time amounted to 897 s.

Take `O=C(Nc1ccnn1Cc1cccs1)c1ccccc1Br`: the RP-LC retention time is 794 s.

In turn, `CC1SC(C)C(=O)N(CC(=O)Nc2ccc3c(c2)OCCO3)C1=O` (stereo not given) registered an RP-LC retention time of 735 s.

The compound `CCCNC(=O)C1CCCN(c2nc3ncn(CC(=O)Nc4ccccc4)c(=O)c3s2)C1` (stereo not given) showed an RP-LC retention time of 683 s.

As for `N#Cc1c(C(F)(F)F)cc(-c2ccccc2)nc1SCCC(N)=O`, the RP-LC retention time was 839 s.

Turning to `CCn1c(C(=O)NCCCN2CCCCC2)c(N2CCCC2=O)c2cc(F)ccc21`, the RP-LC retention time is 647 s.

`COc1ccc(-c2cc(N3CCN(C(=O)c4cccs4)CC3)n[nH]2)cc1` showed an RP-LC retention time of 714 s.

Consider `O=C(c1cn(-c2ccc(-c3nc(C4CC4)no3)cn2)cn1)N1CCSCC1`, for which the RP-LC retention time worked out at 819 s.

For the compound `COc1ccc2[nH]cc(CCNC(=O)C3CCCCC3)c2c1`, the RP-LC retention time amounted to 804 s.

The compound `CCN(CC)S(=O)(=O)c1cc(-c2nnc(C)o2)co1` registered an RP-LC retention time of 737 s.

As for `COc1ccc(OC)c(CNC(=O)Cc2nnc(-c3cccc(Br)c3)o2)c1`, the RP-LC retention time was found to be 796 s.

Compound `Cc1nn2c(=O)cc(CSc3nnc(-c4ccc5c(c4)OCO5)o3)nc2s1` showed an RP-LC retention time of 713 s.

For the compound `O=S(=O)(c1ccccc1)N1CCC2(CC1)NCCN=C2NCc1ccc(F)c(Cl)c1`, the RP-LC retention time worked out at 730 s.

In turn, `O=C(NCCC1=CCCCC1)c1c[nH]c2ncccc12` gave an RP-LC retention time of 968 s.

The compound `CN(C)CCNCc1ccc(-c2ccc(Cl)cc2Cl)o1` came in with an RP-LC retention time of 609 s.

As for `Cc1ccc(CNC(=O)C2CCN(c3cn[nH]c(=O)c3)CC2)cc1`, the RP-LC retention time worked out at 644 s.

On to `O=C(c1ccc(Br)o1)N1CCC(n2cnnc2C2CC2)CC1`, for which the RP-LC retention time is 631 s.

With `CCn1cnc2cc(-c3noc(C(NC(=O)c4ccco4)C(C)C)n3)ccc21` (stereo not given), the RP-LC retention time came out at 666 s.

As to `Cc1c(Cl)cccc1NC(=O)C1CCCN(c2ccc(-n3cccn3)nn2)C1` (stereo not given), the RP-LC retention time is 784 s.

Compound `CCN1C(=O)COc2ccc(-c3noc(-c4ccccc4Br)n3)cc21` had an RP-LC retention time of 1180 s.

Turning to `CC(C)(C)c1ccccc1OCC(=O)Nc1nc(-c2ccccc2)cs1`, the RP-LC retention time is 1320 s.

In turn, `CCCN1N=C(C(=O)N2CCOCC2)S(=O)(=O)c2ccc(Cl)cc21` had an RP-LC retention time of 809 s.

Compound `CCc1ccc(OCc2nc(C)c(C(=O)Nc3nc(-c4ccc(F)cc4)cs3)s2)cc1` had an RP-LC retention time of 1320 s.

`Cc1ncoc1C(=O)N1CC(c2noc(C3CCCN3CC3CC3)n2)C1` (stereo not given) yielded an RP-LC retention time of 559 s.

Compound `COc1ccc(-c2nc(CCS(=O)(=O)c3ccc(Cl)cc3)no2)cc1OC` displayed an RP-LC retention time of 946 s.
